Key:
MDA-MB-453 cells [1] = experiment: ADCC activity with PBMCs (LDH cytotoxicity detection); format: cell-based; conditions: 5, 15 and 45 µg/mL, PBMC effector-to-target ratio 30:1, 4 h
Procedure: MDA-MB-453 cells (purchased from Cobioer Biosciences Co., Ltd., Cat. No. CBP60386) and PBMCs (provided by Zhongshan Blood Center) in the logarithmic growth phase were collected and centrifuged at 170× g for 5 min, and the supernatant was discarded. The cell pellet was resuspended in an assay medium (RPMI-1640 containing 1% FBS), centrifuged and washed twice, and the cells were counted. The cell density was adjusted with the assay medium, and the target cell suspension was seeded into a 96-well plate (containing about 3 × 10^4 target cells/well) at 50 µL/well. Then, serially diluted drugs (5 µg/mL, 15 µg/mL, and 45 µg/mL based on the working concentration of the antibody, respectively) were added, and the plate was pre-incubated at room temperature for 1 h. After the pre-incubation was completed, the PBMC suspension was added to the sample wells at 100 µL/well (each well contained about 9 × 10^5 PBMCs with an effector-to-target ratio of 30:1), mixed uniformly, and incubated in an incubator at 37 °C with 5% CO2 for 4 h. After the incubation was completed, the 96-well plate was taken out and centrifuged at 250× g for 5 min. 100 µL of culture supernatant was carefully pipetted and transferred to another 96-well plate. […] OD values at 490 nm and 650 nm were measured. […] The ADCC activity (expressed as ADCC%) was calculated based on the measured OD value of each group. […]

NCI-H1781 cells = experiment: Specific cell killing activity (CellTiter-Glo); format: cell-based; conditions: medium with 10% human ab serum, 6 days
Procedure: NCI-H1781 cells (Cobioer Biosciences Co., Ltd., Cat. No. CBP60116) were collected, and centrifuged at 1000× g for 5 min, and then the supernatant was removed. The cells were resuspended and counted, and the viability was determined. The cells were diluted, and NCI-H1781 (2500 cells/100 µL) was added to each well of a black-bottom 96-well plate. The plate was incubated in an incubator at 37 °C with 5% CO2 overnight. The experimental drug was diluted with a medium (10% human ab serum), and 100 µL of the experimental drug was added to each well according to the experimental design. A blank control was designed, with three replicate wells set for each group. The plate was incubated in an incubator at 37 °C with 5% CO2 for 6 days. After incubation, the 96-well plate was centrifuged at 350× g for 5 min, and then 135 µL of the supernatant was discarded. 60 µL of CellTiter-Glo (Promega, Cat. No. G8461) was added to each well. The plate was incubated at room temperature for 15 min. Then the […] value was detected by a multi-label microplate tester.

MDA-MB-453 cells [2] = experiment: FACS assay for internalization activity in MDA-MB-453 cells; format: cell-based; conditions: 100 nM, 37 °C for 1 h, 3 h and 5 h, compared to isotype control IgG-Dxd
Procedure: MDA-MB-453 cells (purchased from Cobioer Biosciences Co., Ltd., Cat. No. CBP60386) were collected, counted, and determined for cell viability. The cell suspension was added to a 96-well low-adsorption plate at 1 × 10^5 cells/sample and centrifuged at 750× g for 5 min. The supernatant was discarded. 100 µL of the experimental drug (at a working concentration of 100 nM) was added, with an isotype control (IgG-Dxd, at a working concentration of 100 nM) designed in parallel. The mixture was mixed uniformly and incubated in an incubator at 37 °C for 1 h, 3 h, and 5 h. After the incubation was completed, 1% PBSA (PBS + 1% BSA) was added, and the mixture was centrifuged at 750× g for 5 min. The supernatant was discarded, and the cells were washed twice with 1% PBSA. 100 µL of patritumab (at a working concentration of 100 nM) was added, and the mixture was incubated on ice for 30 min. 1% PBSA (PBS + 1% BSA) was added, and the mixture was centrifuged at 750× g for 5 min. The supernatant was discarded, and the cells were further washed twice with 1% PBSA. 100 µL of 300-fold diluted fluorescent antibody Mouse Anti-Human IgG Fc-Alexa Fluor 647 (Southern Biotech, Cat. No. 9040-31) was added, and the cell pellet was resuspended and incubated on ice for 30 min in the dark. 1% PBSA (PBS + 1% BSA) was added, and the mixture was centrifuged at 1000× g for 5 min. […]

[3] = tested on: HCC827 human lung cancer cell xenograft tumor; experiment: In vivo efficacy in xenograft tumor model; parameters: species or system CB-17 SCID mice; conditions: 3 mg/kg and 1.5 mg/kg, IV, weekly×3, compared to isotype control antibody
From the text: To determine the anti-tumor activity of the anti-HER3 antibody-drug conjugates in vivo, HCC827 human lung cancer cells (purchased from GuangZhou Jennio Biotech Co., Ltd.) were first inoculated subcutaneously into 5- to 8-week-old female CB-17 SCID mice (purchased from Guangdong Model Organisms Center, Inc.) on the upper posterior region of the right hind thigh. The day of grouping was defined as D0. The route of administration was intravenous injection (iv), once a week for a total of 3 doses. After the administration, the length and width of the tumors in each group were measured, and the tumor volume was calculated. Table 7: Dosing regimen of anti-HER3 antibody-drug conjugates for treatment of CB-17 SCID mouse model of HCC827 human lung cancer cell xenograft tumor

Substance: KA0013: anti-HER3 antibody-drug conjugate: patritumab conjugated via thioether bonds to Mc-AAA-Dxd (KA0012)
- ADCC activity (MDA-MB-453 cells [1]): had ADCC activity
- specific cell killing activity (NCI-H1781 cells): specifically kill NCI-H1781 cells
- endocytic (internalization) activity (MDA-MB-453 cells [2]): could be endocytosed in MDA-MB-453
- growth of mouse tumors (tumor volume) [3]: effectively inhibit the growth of mouse tumors

From patent publication EP4763221A1, “COMPOUND AND ANTIBODY-DRUG CONJUGATE COMPRISING SAME” (priority 2023, dated 2025)
